Patent US20230150981A1, “N-HETEROARYLALKYL-2-(HETEROCYCLYL AND HETEROCYCLYLMETHYL) ACETAMIDE DERIVATIVES AS SSTR4 AGONISTS” (Takeda Pharmaceutical Compnay Limited, priority 2020, published 2023)

Biological target: T1, SSTR4 (Homo sapiens, UniProt P31391)
T1 construct: host or cells: CHO-K1
Test: Inhibition of forskolin stimulated cAMP in CHO-K1 cells overexpressing SSTR4
Format: cell-based
Conditions: read-out: SSTR4 Activity pEC50 (converted)
Protocol: Inhibition of Forskolin Stimulated cAMP in Cells Overexpressing SSTR4
This cell-based assay measures the ability of compounds to inhibit forskolin stimulated cAMP in CHO-K1 cells overexpressing SSTR4. CHO-K1 cells overexpressing SSTR4 (CHO-SSTR4) are purchased from DiscoveRx (product code 95-0059C2). The CHO-SSTR4 cells are maintained in F12K media with 10% Fetal Bovine Serum (Hyclone), 1% Pen/Strep (Life Technologies), and 800 μg/mL G418 (Life Technologies). To perform the assay, 3000 cells are plated per well in white 384-well plate (Corning 3570) in 50 μL complete media and the cells are allowed to attach for 16 hours in a 37° C., 5% CO2 incubator. The next day, the culture media is removed from the cells and the cells are washed (added then removed) with Krebs Ringer Buffer (ZenBio, KRB-1000 mL). Test compounds are suspended in DMSO and diluted in stimulation buffer: Krebs Ringer Buffer plus 0.5% BSA (Roche), 300 μM IBMX (Sigma), and 350 nM forskolin (Sigma). The cells are incubated in 10 μL compound/stimulation buffer for 30 minutes at room temperature. Cellular cAMP levels are detected with a HTRF LANCE Ultra cAMP kit (Perkin Elmer, catalog number TRF0264).
The assay is performed in accordance with the manufacturer's instructions. Five μL of diluted Eu-W8044 labeled streptavidin (dilution: 1:50 in cAMP Detection Buffer) is added to each well. Then 5 μL of diluted biotin cAMP (dilution: 1:150 in cAMP Detection Buffer) is added to each well. The plates are covered and allowed to incubate for 60 minutes at room temperature on a shaker. HTRF (665 nm/615 nm) is read on a Perkin Elmer ENVISION plate reader. The pEC50 values are generated using Activity Base for Screening Data Management.

T1 sequence (P31391 whole entry): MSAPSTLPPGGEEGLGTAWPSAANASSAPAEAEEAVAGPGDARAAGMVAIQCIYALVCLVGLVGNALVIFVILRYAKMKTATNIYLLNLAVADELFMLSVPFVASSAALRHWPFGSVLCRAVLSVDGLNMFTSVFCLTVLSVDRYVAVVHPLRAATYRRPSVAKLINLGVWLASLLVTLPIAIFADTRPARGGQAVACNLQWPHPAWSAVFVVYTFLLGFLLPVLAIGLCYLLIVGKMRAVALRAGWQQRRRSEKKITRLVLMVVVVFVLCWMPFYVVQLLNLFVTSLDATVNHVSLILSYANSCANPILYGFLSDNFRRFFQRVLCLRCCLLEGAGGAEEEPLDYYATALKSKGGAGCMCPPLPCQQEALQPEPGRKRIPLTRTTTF

Structure (SMILES)	EC50
CCOc1cccnc1OCC(C)(C)NC(=O)C[C@@H]1CCCN1C [Example 109, (S)-N-(1-((3-ethoxypyridin-2-yl)oxy)-2-methylpropan-2-yl)-2-(1-methylpyrrolidin-2-yl)acetamide]	631 nM
Cc1ccc([C@@H](CF)NC(=O)CCN2CCC2)cc1 (single isomer, unassigned) [Example 174]	> 10000 nM
Cc1cccc(C(C)(C)NC(=O)C[C@@H]2CCCN2C)c1F [Example 86, (S)-N-(2-(2-fluoro-3-methylphenyl)propan-2-yl)-2-(1-methylpyrrolidin-2-yl)acetamide]	251 nM
C[C@H](NC(=O)C[C@@H]1CCCN1C)c1ccc(F)cc1 [Example 32, N-((S)-1-(4-fluorophenyl)ethyl)-2-((S)-1-methylpyrrolidin-2-yl)acetamide]	501 nM
CCN1CCCC1CC(=O)NC1(COc2ncccc2C)CCC1 (stereo not drawn) [Example 64, 2-(1-ethylpyrrolidin-2-yl)-N-(1-(((3-methylpyridin-2-yl)oxy)methyl)cyclobutyl)acetamide]	100 nM
C[C@H](CN1CCC1)C(=O)NC(C)(C)c1ccc(Cl)cc1 (single isomer, unassigned) [Example 154]	1260 nM
C[C@@H](CN1CCCC1)C(=O)NC(C)(C)c1ccccc1Cl (single isomer, unassigned) [Example 137]	316 nM
Cc1cccc(C(C)(C)NC(=O)C[C@H]2CCCN2C)c1F [Example 87, (R)-N-(2-(2-fluoro-3-methylphenyl)propan-2-yl)-2-(1-methylpyrrolidin-2-yl)acetamide]	316 nM
Cc1cccc(CC2(NC(=O)C[C@@H]3CCCN3C)CC2)c1 [Example 81, (S)-N-(1-(3-methylbenzyl)cyclopropyl)-2-(1-methylpyrrolidin-2-yl)acetamide]	398 nM
COc1ccc(C(C)(C)NC(=O)[C@@H](C)CN2CCC2)cc1 (single isomer, unassigned) [Example 139]	1260 nM
COc1c(Cl)cccc1C(C)(C)NC(=O)C[C@H]1CCCN1C [Example 113, (R)-N-(2-(3-chloro-2-methoxyphenyl)propan-2-yl)-2-(1-methylpyrrolidin-2-yl)acetamide]	79.4 nM
Cc1c(F)cccc1C(C)(C)NC(=O)[C@@H](C)CN1CCC1 (single isomer, unassigned) [Example 143]	200 nM
CN1CCC[C@H]1CC(=O)NC(C)(C)COc1nccc2ccoc12 [Example 122, (S)-N-(1-(furo[2,3-c]pyridin-7-yloxy)-2-methylpropan-2-yl)-2-(1-methylpyrrolidin-2-yl)acetamide]	316 nM
Cc1cccnc1OCC1(NC(=O)C[C@H]2CCCN2C)CC1 [Example 121, (R)-N-(1-(((3-methylpyridin-2-yl)oxy)methyl)cyclopropyl)-2-(1-methylpyrrolidin-2-yl)acetamide]	631 nM
C[C@@H](CN1CCC1)C(=O)NC(C)(C)c1ccccc1F (single isomer, unassigned) [Example 157]	2510 nM
Cn1nc(C(C)(C)NC(=O)CC23CCCN2CCC3)c2ccccc21 [Example 10, N-(2-(1-methyl-1H-indazol-3-yl)propan-2-yl)-2-(tetrahydro-1H-pyrrolizin-7a(5H)-yl)acetamide]	200 nM
CC(C)(COc1ncccc1C(F)(F)F)NC(=O)C[C@@H]1CCCN1CCF [Example 52, (S)-2-(1-(2-fluoroethyl)pyrrolidin-2-yl)-N-(2-methyl-1-((3-(trifluoromethyl)pyridin-2-yl)oxy)propan-2-yl)acetamide]	501 nM
CN1Cc2ccccc2C[C@H]1CC(=O)NC(C)(C)c1nccc2ccccc12 [Example 20, (S)-N-(2-(isoquinolin-1-yl)propan-2-yl)-2-(2-methyl-1,2,3,4-tetrahydroisoquinolin-3-yl)acetamide]	2000 nM
COc1c(F)cccc1C(C)(C)NC(=O)C[C@@H]1CCCN1C [Example 114, (S)-N-(2-(3-fluoro-2-methoxyphenyl)propan-2-yl)-2-(1-methylpyrrolidin-2-yl)acetamide]	251 nM
Cc1cccnc1OCC(C)(C)NC(=O)CC1CCCCN1C (stereo not drawn) [Example 69, N-(2-methyl-1-((3-methylpyridin-2-yl)oxy)propan-2-yl)-2-(1-methylpiperidin-2-yl)acetamide]	25.1 nM

Structure (SMILES)	EC50
Cc1cnc(OCC(C)(C)NC(=O)C[C@@H]2CCCN2C)c(Cl)c1 [Example 124, (S)-N-(1-((3-chloro-5-methylpyridin-2-yl)oxy)-2-methylpropan-2-yl)-2-(1-methylpyrrolidin-2-yl)acetamide]	39.8 nM
COc1cc(F)ccc1[C@H](C)NC(=O)C[C@@H]1CCCN1C [Example 95, N-((S)-1-(4-fluoro-2-methoxyphenyl)ethyl)-2-((S)-1-methylpyrrolidin-2-yl)acetamide]	794 nM
CN1CCC[C@H]1CC(=O)NC(C)(C)COc1nccc2occc12 [Example 125, (S)-N-(1-(furo[3,2-c]pyridin-4-yloxy)-2-methylpropan-2-yl)-2-(1-methylpyrrolidin-2-yl)acetamide]	126 nM
C[C@H](NC(=O)CC1CCCCN1C)c1ccc(F)cc1 (stereo partly drawn) [Example 61, N-((S)-1-(4-fluorophenyl)ethyl)-2-(1-methylpiperidin-2-yl)acetamide]	158 nM
CN1CCCC1CC(=O)NC(C)(C)c1nccc2occc12 (stereo not drawn) [Example 25, N-(2-(furo[3,2-c]pyridin-4-yl)propan-2-yl)-2-(1-methylpyrrolidin-2-yl)acetamide]	79.4 nM
CC(C)(COc1ncccc1C(F)(F)F)NC(=O)C[C@H]1CCCN1C1CC1 [Example 59, (R)-2-(1-cyclopropylpyrrolidin-2-yl)-N-(2-methyl-1-((3-(trifluoromethyl)pyridin-2-yl)oxy)propan-2-yl)acetamide]	15.8 nM
Cc1ccccc1C(C)(C)NC(=O)[C@@H](C)CN1CCC1 (single isomer, unassigned) [Example 141]	398 nM
CC[C@@H](CN1CCC1)C(=O)NC(C)(C)c1cccc(F)c1 (single isomer, unassigned) [Example 185]	79.4 nM
Cc1cccnc1OCC(C)(C)NC(=O)[C@H](C)[C@@H]1CCCN1C (racemic) [Example 66, (R)-N-(2-methyl-1-((3-methylpyridin-2-yl)oxy)propan-2-yl)-2-((S)-1-methylpyrrolidin-2-yl)propanamide and (S)-N-(2-methyl-1-((3-methylpyridin-2-yl)oxy)propan-2-yl)-2-((R)-1-methylpyrrolidin-2-yl)propanamide]	15.8 nM
CN1CCC[C@@H]1CC(=O)NC(C)(C)COc1ncccc1C1CC1 [Example 108, (R)-N-(1-((3-cyclopropylpyridin-2-yl)oxy)-2-methylpropan-2-yl)-2-(1-methylpyrrolidin-2-yl)acetamide]	20 nM
COc1ncccc1CC1(NC(=O)CC2CCCCN2C)CC1 (stereo not drawn) [Example 79, N-(1-((2-methoxypyridin-3-yl)methyl)cyclopropyl)-2-(1-methylpiperidin-2-yl)acetamide]	398 nM
COc1c(F)cccc1C(C)(C)NC(=O)C[C@H]1CCCN1C [Example 115, (R)-N-(2-(3-fluoro-2-methoxyphenyl)propan-2-yl)-2-(1-methylpyrrolidin-2-yl)acetamide]	200 nM
CN1CCC[C@@H]1CC(=O)NC(C)(C)COc1ncccc1OC(F)(F)F [Example 106, (R)-N-(2-methyl-1-((3-(trifluoromethoxy)pyridin-2-yl)oxy)propan-2-yl)-2-(1-methylpyrrolidin-2-yl)acetamide]	20 nM
CC(C)(COc1ncccc1C(F)(F)F)NC(=O)C[C@H]1CCCN1CCF [Example 58, (R)-2-(1-(2-fluoroethyl)pyrrolidin-2-yl)-N-(2-methyl-1-((3-(trifluoromethyl)pyridin-2-yl)oxy)propan-2-yl)acetamide]	39.8 nM
COc1c(C)cccc1C(C)(C)NC(=O)C[C@@H]1CCCN1C [Example 116, (S)-N-(2-(2-methoxy-3-methylphenyl)propan-2-yl)-2-(1-methylpyrrolidin-2-yl)acetamide]	79.4 nM
CN1CCCCC1CC(=O)NC(C)(C)c1nccc2c1cnn2C (stereo not drawn) [Example 26, N-(2-(1-methyl-1H-pyrazolo[4,3-c]pyridin-4-yl)propan-2-yl)-2-(1-methylpiperidin-2-yl)acetamide]	2510 nM
C[C@H](NC(=O)C[C@@H]1CCCN1C)c1ccc(Cl)cc1 [Example 31, N-((S)-1-(4-chlorophenyl)ethyl)-2-((S)-1-methylpyrrolidin-2-yl)acetamide]	316 nM
C[C@@H](CN1CCC1)C(=O)N[C@@H](CF)c1ccccc1 (single isomer, unassigned) [Example 206]	200 nM
Cc1cccnc1OCC1(NC(=O)C[C@@H]2CCCN2C)CC1 [Example 54, (S)-N-(1-(((3-methylpyridin-2-yl)oxy)methyl)cyclopropyl)-2-(1-methylpyrrolidin-2-yl)acetamide]	251 nM
